Results published in patent publication US20250122191A1, “COMPOUNDS AS BCL-2 INHIBITORS” (Fochon Biosciences, Ltd, priority 2021, published 2025).

How the values were obtained:
RS4;11-BCL-2 G101V cells = test: Cell proliferation assay (MTS), RS4;11-BCL-2 G101V engineered cells; format: cell-based; details: Homo sapiens, 120 h, read-out: RS4, 11 BCL2-G101V IC50
Outline: (§1)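 Inhibition of mutant BCL-2 is inferred from reduced proliferation of RS4;11 cells stably overexpressing the mutant. Compounds are tested at 1.5–10000 nM for 120 h (G101V, F104L) or 72 h (D103E, D103Y), with MTS absorbance at 490 nm used to derive IC50.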

RS4;11-BCL-2 D103E cells = test: Cell proliferation assay (MTS), RS4;11-BCL-2 D103E engineered cells; format: cell-based; details: Homo sapiens, 72 h, read-out: RS4, 11 BCL2-D103E IC50
Outline: as §1

Toledo cells = test: Cell proliferation assay (MTS), Toledo cells; format: cell-based; details: Homo sapiens, 72 h
Outline: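 Toledo cells (RPMI-1640, 10% FBS) seeded at 30000 cells/well, rested 4 h, then exposed 72 h at 37 °C, 5% CO2 to compound at nine final concentrations, 1.5–10000 nM. Viability by MTS (2 h), absorbance at 490 nm. IC50 from the concentration-response.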

[1] = Pharmacokinetics assay in rats; format: in vivo; details: male Sprague-Dawley rats, po, 5 mg/kg, plasma; for AUC(0-t) / half-life / Cmax: rat; for Cmax: read-out: Cmax/C0
Protocol: The purpose of this study was to determine the pharmacokinetics of Examples in male Sprague-Dawley rats (Supplied by Beijing Vital River Laboratory Animal Technology Co., Ltd.) following a single intravenous bolus injection at 1 mg/kg and oral gavage (PO) administration at 5 mg/kg.
Animals in Group 1 were administered with Examples by single intravenous bolus injection at 1 mg/kg, which was formulated in 10% DMSO (Sigma, Batch #LPCOS181): 60% PEG400 (Sigma, Batch #MKCH6281): 30% water, pH 5-6 at 1 mg/mL as a solution. Animals in Group 2 were administered with Examples by single oral gavage (PO) administration at 5 mg/kg, which was formulated in 10% DMSO (Sigma, Batch #BCCD6641): 60% PEG400 (Sigma, Batch #MKCL4921): 30% water at 1 mg/mL as a solution. Blood samples were collected at 0.083, 0.25, 0.5, 1, 2, 4, 8, 12 and 24 hours post-dose. Concentrations of Examples in plasma were determined by LC/MS/MS (LC: Waters UPLC; MS: Triple Quad 6500 plus).

RS4;11-BCL-2 F104L cells = test: Cell proliferation assay (MTS), RS4;11-BCL-2 F104L engineered cells; format: cell-based; details: Homo sapiens, 120 h, read-out: RS4, 11 BCL2-F104L IC50
Outline: as §1

Row | Compound | IC50 (RS4;11-BCL-2 G101V cells) [nM] | IC50 (RS4;11-BCL-2 D103E cells) [nM] | IC50 (Toledo cells) [nM] | AUC(0-t) [1] [ng·h/mL] | half-life [1] [h] | Cmax [1] [ng/mL] | IC50 (RS4;11-BCL-2 F104L cells) [nM] | AUClast [1] [ng·h/mL] | Cmax/C0 [1] [ng/mL] | T1/2 [1] [h]
1 | COc1ccc(CN2CCN(C3CC4(CCN(c5ccc(C(=O)NS(=O)(=O)c6cnc(NC[C@H]7CC[C@](C)(O)CC7)c([N+](=O)[O-])c6)c(Oc6cc7c(F)c[nH]c7nc6OC)c5)CC4)C3)[C@H](c3ccccc3C(C)C)C2)cc1 [Example 1, 2-((3 fluoro-6-methoxy-1H pyrrolo[2,3-b]pyridin-5 yl)oxy)-N-((6-((((1r, 4r)-4-hydroxy-4-methylcyclohexyl)methyl)amino)-5-nitropyridin-3-yl)sulfonyl)-4-(2-((R)-2-(2-isopropylphenyl)-4-(4-methoxybenzyl)piperazin-1-yl)-7-azaspiro[3.5]nonan-7-yl)benzamide] | 1 | 2 | 1 | 3030 | 9.02 | 227 | 1 | – | – | –
2 | CCOc1nc2[nH]cc(F)c2cc1Oc1cc(N2CCC3(CC2)CC(N2CCN(Cc4ccc(F)c(F)c4)C[C@H]2c2ccccc2C(C)C)C3)ccc1C(=O)NS(=O)(=O)c1cnc(NC[C@H]2CC[C@](C)(O)CC2)c([N+](=O)[O-])c1 [Example 4, 4-(2-((R)-4-(3,4-difluorobenzyl)-2-(2-isopropylphenyl)piperazin-1-yl)-7-azaspiro[3.5]nonan-7-yl)-2-((6-ethoxy-3-fluoro-1H-pyrrolo[2,3-b]pyridin-5-yl)oxy)-N-((6-((((1r,4r)-4-hydroxy-4-methylcyclohexyl)methyl)amino)-5-nitropyridin-3-yl)sulfonyl)benzamide] | 1 | – | 1 | 1740 | 9.57 | 176 | 1 | – | – | –
3 | COc1cc(CN2CCN(C3CC4(CCN(c5ccc(C(=O)NS(=O)(=O)c6cnc(NC[C@H]7CC[C@](C)(O)CC7)c([N+](=O)[O-])c6)c(Oc6cc7c(F)c[nH]c7nc6OC)c5)CC4)C3)[C@H](c3ccccc3C(C)C)C2)ccc1C1CC1 [Example 5, 4-(2-((R)-4-(4-cyclopropyl-3-methoxybenzyl)-2-(2-isopropylphenyl)piperazin-1-yl)-7-azaspiro[3.5]nonan-7-yl)-2-((3-fluoro-6-methoxy-1H-pyrrolo[2,3-b]pyridin-5-yl)oxy)-N-((6-((((1r,4r)-4-hydroxy-4-methylcyclohexyl)methyl)amino)-5-nitropyridin-3-yl)sulfonyl)benzamide] | 1 | – | 1 | 2260 | 24.4 | 37.1 | 1 | – | – | –
4 | CCOc1nc2[nH]cc(F)c2cc1Oc1cc(N2CCC3(CC2)CC(N2CCN(Cc4ccc(OC)cc4)C[C@H]2c2ccccc2C(C)C)C3)ccc1C(=O)NS(=O)(=O)c1cnc(NC[C@H]2CC[C@](C)(O)CC2)c([N+](=O)[O-])c1 [Example 2, 2-((6-ethoxy-3-fluoro-1H-pyrrolo[2,3-b]pyridin-5-yl)oxy)-N-((6-((((1r,4r)-4-hydroxy-4-methylcyclohexyl)methyl)amino)-5-nitropyridin-3-yl)sulfonyl)-4-(2-((R)-2-(2-isopropylphenyl)-4-(4-methoxybenzyl)piperazin-1-yl)-7-azaspiro[3.5]nonan-7-yl)benzamide] | 1 | 3 | 1 | 1920 | 7.62 | 166 | – | – | – | –
5 | CC(C)c1ccccc1[C@@H]1CN(C)CCN1C1CC2(CCN(c3ccc(C(=O)NS(=O)(=O)c4cnc(NCC5CCC(C)(O)CC5)c([N+](=O)[O-])c4)c(Oc4cnc5[nH]ccc5c4)c3)CC2)C1 (stereo partly drawn) [Reference Compound 1, (R)-2-((1H-pyrrolo[2,3-b]pyridin-5-yl)oxy)-N-((6-(((4-hydroxy-4-methylcyclohexyl)methyl)amino)-S-nitropyridin-3-yl)sulfonyl)-4-(2-(2-(2-isopropylphenyl)-4-methylpiperazin-1-yl)-7-azaspiro[3.5]nonan-7-yl)benzamide, reference compound] | – | – | – | – | – | – | – | 128 | 49.9 | 1.16
6 | COc1nc2[nH]cc(F)c2cc1Oc1cc(N2CCC3(CC2)CC(N2CCN(Cc4ccc(F)cc4)C[C@H]2c2ccccc2C(C)C)C3)ccc1C(=O)NS(=O)(=O)c1cnc(NC[C@H]2CC[C@](C)(O)CC2)c([N+](=O)[O-])c1 [Example 233, 2-((3-fluoro-6-methoxy-1H-pyrrolo[2,3-b]pyridin-5-yl)oxy)-4-(2-((R)-4-(4-fluorobenzyl)-2-(2-isopropylphenyl)piperazin-1-yl)-7-azaspiro[3.5]nonan-7-yl)-N-((6-((((1r,4r)-4-hydroxy-4-methylcyclohexyl)methyl)amino)-5-nitropyridin-3-yl)sulfonyl)benzamide] | 1 | – | 1 | 3920 | 7.36 | 439 | 1 | – | – | –
7 | COc1nc2[nH]cc(F)c2cc1Oc1cc(N2CCC3(CC2)CC(N2CCN(Cc4ccc(F)c(F)c4)C[C@H]2c2ccccc2C(C)C)C3)ccc1C(=O)NS(=O)(=O)c1cnc(NC[C@H]2CC[C@](C)(O)CC2)c([N+](=O)[O-])c1 [Example 3, 4-(2-((R)-4-(3,4-difluorobenzyl)-2-(2-isopropylphenyl)piperazin-1-yl)-7-azaspiro[3.5]nonan-7-yl)-2-((3-fluoro-6-methoxy-1H-pyrrolo[2,3-b]pyridin-5-yl)oxy)-N-((6-((((1r,4r)-4-hydroxy-4-methylcyclohexyl)methyl)amino)-5-nitropyridin-3-yl)sulfonyl)benzamide] | 1 | – | 1 | 4650 | 9.21 | 382 | 1 | – | – | –
8 | COc1nc2[nH]cc(F)c2cc1Oc1cc(N2CCC3(CC2)CC(N2CCN(Cc4ccc(C5CC5)c(OC)n4)C[C@H]2c2ccccc2C(C)C)C3)ccc1C(=O)NS(=O)(=O)c1cnc(NC[C@H]2CC[C@](C)(O)CC2)c([N+](=O)[O-])c1 [Example 289, 4-(2-((R)-4-((5-cyclopropyl-6-methoxypyridin-2-yl)methyl)-2-(2-isopropylphenyl)piperazin-1-yl)-7-azaspiro[3.5]nonan-7-yl)-2-((3-fluoro-6-methoxy-1H-pyrrolo[2,3-b]pyridin-5-yl)oxy)-N-((6-((((1r,4r)-4-hydroxy-4-methylcyclohexyl)methyl)amino)-5-nitropyridin-3-yl)sulfonyl)benzamide] | 2 | 1 | 1 | 3450 | 8.1 | 357 | 1 | – | – | –
9 | COc1nc2[nH]cc(F)c2cc1Oc1cc(N2CCC3(CC2)CC(N2CCN(Cc4ccc(Cl)cc4)C[C@H]2c2ccccc2C(C)C)C3)ccc1C(=O)NS(=O)(=O)c1cnc(NC[C@H]2CC[C@](C)(O)CC2)c([N+](=O)[O-])c1 [Example 230, 4-(2-((R)-4-(4-chlorobenzyl)-2-(2-isopropylphenyl)piperazin-1-yl)-7-azaspiro[3.5]nonan-7-yl)-2-((3-fluoro-6-methoxy-1H-pyrrolo[2,3-b]pyridin-5-yl)oxy)-N-((6-((((1r,4r)-4-hydroxy-4-methylcyclohexyl)methyl)amino)-5-nitropyridin-3-yl)sulfonyl)benzamide] | 1 | – | 1 | 3750 | 10.2 | 329 | 1 | – | – | –
10 | COc1cc(CN2CCN(C3CC4(CCN(c5ccc(C(=O)NS(=O)(=O)c6cnc(NC[C@H]7CC[C@](C)(O)CC7)c([N+](=O)[O-])c6)c(Oc6cc7c(F)c[nH]c7nc6OC)c5)CC4)C3)[C@H](c3ccccc3C(C)C)C2)ccn1 [Example 242, 2-((3-fluoro-6-methoxy-1H-pyrrolo[2,3-b]pyridin-5-yl)oxy)-N-((6-((((1r,4r)-4-hydroxy-4-methylcyclohexyl)methyl)amino)-5-nitropyridin-3-yl)sulfonyl)-4-(2-((R)-2-(2-isopropylphenyl)-4-((2-methoxypyridin-4-yl)methyl)piperazin-1-yl)-7-azaspiro[3.5]nonan-7-yl)benzamide] | 1 | 1 | 1 | 2760 | 7.02 | 272 | 1 | – | – | –
